Laboratory results reported in ChEMBL document CHEMBL5579832, “Design, synthesis, and biological evaluation of pyrido[2,3-d]pyrimidin-7(8H)-one derivatives as potent USP1 inhibitors” (Eur J Med Chem, 2024).
Calls of active or inactive are those of the source. The calls are words filed in the database; no cut-off is given here.

Tests used:
[1] = target: T1, Ubiquitin carboxyl-terminal hydrolase 1/WD repeat-containing protein 48 (Homo sapiens) (UniProt O94782+Q8TAF3); assay: Inhibition of USP1/UAF1 in human MDA-MB-436 cells assessed as increase in Ub-PCNA level at 20 nM incubated for 24 hrs by Western blot analysis; type: cell-based
[2] = Half life in male ICR mouse at 10 mg/kg, po administered as single dose and measured after 24 hrs; type: ADME, organism-based; details: in vivo
[3] = target: T1, Ubiquitin carboxyl-terminal hydrolase 1/WD repeat-containing protein 48 (Homo sapiens); assay: Inhibition of recombinant human 6His-tagged USP1-6His-tagged UAF1 complex using diubiquitin as a substrate assessed as inhibiting the cleavage of K63-linked di-Ub at 0 to 10 uM preincubated for 15 mins followed by substrate addition and measured after 2 hrs by SDS-PAGE analysis; type: protein-complex assay; details: dose 0-10 µM, time 135.0 min
[4] = tested on: Olaparib-resistant MDA-MB-436; assay: Inhibition of colony formation in human Olaparib-resistant MDA-MB-436 cell at 100 nM measured after 7 days by SRB staining based assay relative to control; type: functional; details: Olaparib-resistant MDA-MB-436, 168 h, time 7 day
[5] = target: T2, Ubiquitin carboxyl-terminal hydrolase 25 (Homo sapiens) (UniProt Q9UHP3); assay: Inhibition of recombinant human 6His-tagged USP25 using diubiquitin as a substrate at 0 to 10 uM preincubated for 15 mins followed by substrate addition and measured after 2 hrs by SDS-PAGE analysis; details: dose 0-10 µM, time 135.0 min
T2 sequence (whole entry): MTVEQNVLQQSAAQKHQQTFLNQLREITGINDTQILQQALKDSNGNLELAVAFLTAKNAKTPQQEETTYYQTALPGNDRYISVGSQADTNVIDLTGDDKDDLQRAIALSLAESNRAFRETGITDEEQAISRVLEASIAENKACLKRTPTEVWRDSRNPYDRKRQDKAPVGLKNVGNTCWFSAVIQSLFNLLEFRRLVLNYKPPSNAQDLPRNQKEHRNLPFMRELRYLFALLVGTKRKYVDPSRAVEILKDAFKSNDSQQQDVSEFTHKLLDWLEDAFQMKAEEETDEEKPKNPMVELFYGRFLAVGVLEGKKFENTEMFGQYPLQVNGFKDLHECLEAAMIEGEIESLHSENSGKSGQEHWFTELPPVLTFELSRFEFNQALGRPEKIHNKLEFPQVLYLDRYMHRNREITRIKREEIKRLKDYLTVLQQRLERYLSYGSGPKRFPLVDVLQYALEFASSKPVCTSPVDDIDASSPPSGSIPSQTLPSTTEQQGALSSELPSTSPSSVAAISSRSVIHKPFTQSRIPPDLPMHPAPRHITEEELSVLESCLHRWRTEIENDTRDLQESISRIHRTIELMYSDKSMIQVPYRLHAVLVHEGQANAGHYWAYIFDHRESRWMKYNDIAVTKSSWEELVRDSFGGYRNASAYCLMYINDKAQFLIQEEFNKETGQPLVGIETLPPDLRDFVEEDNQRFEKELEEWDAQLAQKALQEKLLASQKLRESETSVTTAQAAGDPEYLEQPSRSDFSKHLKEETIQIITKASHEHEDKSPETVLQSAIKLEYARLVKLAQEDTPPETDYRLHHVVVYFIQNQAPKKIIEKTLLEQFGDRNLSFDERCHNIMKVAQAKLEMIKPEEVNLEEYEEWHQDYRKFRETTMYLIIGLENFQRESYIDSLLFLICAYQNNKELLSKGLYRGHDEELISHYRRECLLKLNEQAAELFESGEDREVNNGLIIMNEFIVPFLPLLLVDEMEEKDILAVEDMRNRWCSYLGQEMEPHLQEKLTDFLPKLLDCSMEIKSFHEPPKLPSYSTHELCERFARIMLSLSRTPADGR

[6] = Cmax in male ICR mouse at 10 mg/kg, po administered as single dose and measured after 24 hrs; type: ADME, organism-based; details: in vivo
[7] = target: T3, Ubiquitin carboxyl-terminal hydrolase 8 (Homo sapiens) (UniProt P40818); assay: Inhibition of recombinant human 6His-tagged USP8 using diubiquitin as a substrate at 0 to 10 uM preincubated for 15 mins followed by substrate addition and measured after 2 hrs by SDS-PAGE analysis; details: dose 0-10 µM, time 135.0 min
T3 sequence (whole entry): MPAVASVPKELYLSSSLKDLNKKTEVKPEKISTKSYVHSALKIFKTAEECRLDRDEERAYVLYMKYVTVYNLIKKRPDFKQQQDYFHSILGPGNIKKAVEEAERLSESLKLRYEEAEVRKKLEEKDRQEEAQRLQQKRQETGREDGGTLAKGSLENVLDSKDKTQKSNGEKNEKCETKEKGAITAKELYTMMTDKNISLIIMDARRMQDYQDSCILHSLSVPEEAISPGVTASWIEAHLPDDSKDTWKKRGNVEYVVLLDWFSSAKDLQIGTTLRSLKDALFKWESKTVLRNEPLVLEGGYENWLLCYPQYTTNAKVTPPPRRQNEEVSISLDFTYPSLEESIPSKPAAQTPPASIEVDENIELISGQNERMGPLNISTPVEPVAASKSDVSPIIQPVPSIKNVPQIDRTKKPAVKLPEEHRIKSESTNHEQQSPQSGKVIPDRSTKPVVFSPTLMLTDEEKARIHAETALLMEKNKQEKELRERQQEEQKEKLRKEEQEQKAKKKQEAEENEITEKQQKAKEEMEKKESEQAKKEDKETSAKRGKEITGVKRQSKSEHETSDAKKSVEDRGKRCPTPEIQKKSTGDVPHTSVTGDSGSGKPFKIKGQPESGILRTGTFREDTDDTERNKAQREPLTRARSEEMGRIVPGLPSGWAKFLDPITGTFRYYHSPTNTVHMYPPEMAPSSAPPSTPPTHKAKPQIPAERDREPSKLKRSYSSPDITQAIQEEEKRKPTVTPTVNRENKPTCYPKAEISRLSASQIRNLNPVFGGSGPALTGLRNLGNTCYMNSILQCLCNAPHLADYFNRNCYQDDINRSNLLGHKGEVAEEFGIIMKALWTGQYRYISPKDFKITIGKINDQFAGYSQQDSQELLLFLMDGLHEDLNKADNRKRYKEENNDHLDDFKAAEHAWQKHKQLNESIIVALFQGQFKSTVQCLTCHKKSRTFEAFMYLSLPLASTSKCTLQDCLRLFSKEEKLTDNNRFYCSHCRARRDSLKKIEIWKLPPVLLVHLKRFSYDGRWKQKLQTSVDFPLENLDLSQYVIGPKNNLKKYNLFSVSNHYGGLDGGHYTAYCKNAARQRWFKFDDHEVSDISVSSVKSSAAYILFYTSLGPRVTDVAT

[8] = tested on: Olaparib-resistant MDA-MB-436; assay: Induction of cell cycle arrest in human Olaparib-resistant MDA-MB-436 cell assessed as increase in cells at S phase at 1 uM incubated for 24 hrs by PI staining based flow cytometry analysis; type: functional
[9] = target: T1, Ubiquitin carboxyl-terminal hydrolase 1/WD repeat-containing protein 48 (Homo sapiens); assay: Non competitive inhibition of USP1/UAF1 complex (unknown origin) using Ub-7-amido-4-methylcoumarin as substrate at 0 to 200 nM incubated for 120 mins by Lineweaver-burk plot analysis; type: protein-complex assay; details: dose 0-200 nM
[10] = target: Ubiquitin carboxyl-terminal hydrolase 7 (Homo sapiens) (UniProt Q93009); assay: Inhibition of recombinant human 8His-tagged USP7 using diubiquitin as a substrate at 0 to 10 uM preincubated for 15 mins followed by substrate addition and measured after 2 hrs by SDS-PAGE analysis; details: dose 0-10 µM, time 135.0 min
Ubiquitin carboxyl-terminal hydrolase 7 (Homo sapiens), sequence (Q93009 whole entry, looked up): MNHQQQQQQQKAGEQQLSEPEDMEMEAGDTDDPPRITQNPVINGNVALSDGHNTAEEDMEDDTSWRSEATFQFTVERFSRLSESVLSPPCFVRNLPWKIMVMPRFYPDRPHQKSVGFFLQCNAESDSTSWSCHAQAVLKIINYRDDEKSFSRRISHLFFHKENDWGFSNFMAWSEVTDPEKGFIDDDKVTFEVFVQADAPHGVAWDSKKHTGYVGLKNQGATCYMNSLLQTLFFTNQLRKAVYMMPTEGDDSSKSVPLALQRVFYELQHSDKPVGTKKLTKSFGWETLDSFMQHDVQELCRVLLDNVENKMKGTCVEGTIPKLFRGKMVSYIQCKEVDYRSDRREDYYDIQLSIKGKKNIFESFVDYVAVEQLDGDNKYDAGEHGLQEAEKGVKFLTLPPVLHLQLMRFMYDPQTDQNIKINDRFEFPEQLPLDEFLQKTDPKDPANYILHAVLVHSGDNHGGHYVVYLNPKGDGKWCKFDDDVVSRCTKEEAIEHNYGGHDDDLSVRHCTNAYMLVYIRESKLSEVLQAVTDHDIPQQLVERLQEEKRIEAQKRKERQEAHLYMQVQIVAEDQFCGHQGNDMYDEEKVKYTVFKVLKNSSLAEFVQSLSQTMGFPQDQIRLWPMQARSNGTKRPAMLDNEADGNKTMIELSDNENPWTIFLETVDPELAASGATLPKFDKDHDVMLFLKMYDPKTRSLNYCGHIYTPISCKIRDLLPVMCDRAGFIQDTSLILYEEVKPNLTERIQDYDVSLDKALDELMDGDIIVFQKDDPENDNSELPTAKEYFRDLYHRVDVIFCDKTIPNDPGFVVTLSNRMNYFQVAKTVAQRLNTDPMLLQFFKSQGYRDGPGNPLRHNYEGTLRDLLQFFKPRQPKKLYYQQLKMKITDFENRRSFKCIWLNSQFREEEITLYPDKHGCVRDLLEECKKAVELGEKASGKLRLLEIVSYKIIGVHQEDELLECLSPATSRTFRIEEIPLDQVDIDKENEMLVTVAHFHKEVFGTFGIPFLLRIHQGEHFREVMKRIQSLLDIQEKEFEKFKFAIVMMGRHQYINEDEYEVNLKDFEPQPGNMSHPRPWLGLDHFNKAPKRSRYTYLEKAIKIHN

COc1ncnc(C2CC2)c1-c1ncc2ccc(=O)n(Cc3ccc(-c4nc(C(F)(F)F)cn4C(C)C)cc3)c2n1
inhibition [1]: Active | half-life [2]: 7.61 h | inhibition [3]: Active | inhibition at 0.1 µM [4]: 30% | inhibition [5]: inactive | Cmax [6]: 4.78 µg/mL | inhibition [7]: inactive | Activity [8]: Active | inhibition [9]: Active | inhibition [10]: inactive
